{
  "source": "ChEMBL document CHEMBL5131389",
  "about": "“PSMA-targeted small-molecule docetaxel conjugate: Synthesis and preclinical evaluation” (Eur J Med Chem, 2022)",
  "key": {"[1]": {"assay": "Chronic toxicity in Soviet Chinchilla rabbit assessed as urine alkalization at 10.17 to 12.21 mg/kg, iv administered as pluronic F127 formulation at 4 intervals for 21 days and observed 3 weeks post last injection", "type": "organism-based, Oryctolagus cuniculus", "settings": "in vivo, 2544 h, dose 10.17-12.21 mg/kg, time 106 day"}, "[2]": {"assay": "C0 in Albino Wistar rat at 15 mg/kg, iv administered as pluronic F127 formulation measured upto 72 hrs by high-performance liquid chromatography tandem mass spectrometric analysis", "type": "ADME, organism-based", "settings": "in vivo"}, "[3]": {"assay": "Chronic toxicity in rat assessed as decrease in erythrocytes in blood administered intravenously as pluronic F127 formulation at 4 intervals for 21 days and observed 3 weeks post last injection relative to control", "type": "cell-based", "settings": "iv, 2544 h, time 106 day"}, "[4]": {"tested_on": "DU-145", "assay": "Antitumor activity against human DU-145 cells xenografted in BALB/c nude mouse assessed as reduction in tumor growth index at 60 mg/kg, ip measured upto 30 days (reference value: 1110.1 +/- 136.7 %)", "type": "functional", "design": "scale not given: the % may be the effect or the level left", "settings": "time <= 30 day"}, "[5]": {"tested_on": "CWR22R", "assay": "Cytotoxicity against human 22Rv1 cells assessed as reduction in cell viability measured after 72 hrs by MTT assay", "type": "functional"}, "[6]": {"assay": "Subchronic toxicity in Wistar rat assessed as tolerance at 58 mg/kg, iv administered as pluronic F127 formulation daily for 28 days", "type": "organism-based", "settings": "in vivo, 672 h, time 28 day"}, "[7]": {"assay": "Half-life in Soviet Chinchilla rabbit at 8.1 mg/kg, iv administered as pluronic F127 formulation measured upto 72 hrs by high-performance liquid chromatography tandem mass spectrometric analysis", "type": "ADME, organism-based, Oryctolagus cuniculus", "settings": "in vivo"}, "[8]": {"assay": "Chronic toxicity in rat assessed as increase in relative mass of liver at 15 to 22.5 mg/kg, iv administered as pluronic F127 formulation at 4 intervals for 21 days and observed 3 weeks post last injection relative to control", "type": "organism-based", "settings": "in vivo, 2544 h, dose 15-22.5 mg/kg, time 106 day"}, "[9]": {"assay": "Chronic toxicity in rat assessed as reduction in number of crossed squares at 22.5 mg/kg, iv administered as pluronic F127 formulation at 4 intervals for 21 days and observed 3 weeks post last injection", "type": "organism-based", "settings": "in vivo, 2544 h, time 106 day"}, "[10]": {"assay": "Ratio of AUC (t to infinity) to AUC (0 to infinity) in Albino Wistar rat at 15 mg/kg, iv administered as pluronic F127 formulation measured upto 72 hrs by high-performance liquid chromatography tandem mass spectrometric analysis", "type": "ADME, organism-based", "settings": "in vivo"}, "[11]": {"assay": "Acute toxicity in ICR mouse assessed as liver damage at 183 to 960 mg/kg, iv administered as pluronic F127 formulation and measured for 14 days", "type": "organism-based", "settings": "in vivo, 336 h, dose 183-960 mg/kg, time 14 day"}, "[12]": {"assay": "Chronic toxicity in rat assessed as change in relative heart mass at 15 to 18.75 mg/kg, iv administered as pluronic F127 formulation for 4 intervals of 21 days and observed 3 weeks post last injection relative to control", "type": "organism-based", "settings": "in vivo, 2544 h, dose 15-18.75 mg/kg, time 106 day"}, "[13]": {"assay": "Chronic toxicity in rat assessed as increase in relative brain mass administered intravenously as pluronic F127 formulation at 4 intervals for 21 days and observed 3 weeks post last injection relative to control", "type": "tissue-based", "settings": "in vivo, iv, 2544 h, time 106 day"}, "[14]": {"assay": "Chronic toxicity in rat assessed as increase in relative mass of adrenal gland administered intravenously as pluronic F127 formulation at 4 intervals for 21 days and observed 3 weeks post last injection relative to control", "type": "tissue-based", "settings": "in vivo, iv, 2544 h, time 106 day"}, "[15]": {"assay": "Clearance in Soviet Chinchilla rabbit at 8.1 mg/kg, iv administered as pluronic F127 formulation measured upto 72 hrs by high-performance liquid chromatography tandem mass spectrometric analysis", "type": "ADME, organism-based, Oryctolagus cuniculus", "settings": "in vivo"}, "[16]": {"assay": "Chronic toxicity in rat assessed as increase in creatinine concentration at 18.75 to 22.5 mg/kg, iv administered as pluronic F127 formulation at 4 intervals for 21 days and observed 3 weeks post last injection relative to control", "type": "organism-based", "settings": "in vivo, 2544 h, dose 18.75-22.5 mg/kg, time 106 day"}, "[17]": {"assay": "Chronic toxicity in rat assessed as increase in relative mass of stomach administered intravenously as pluronic F127 formulation at 4 intervals for 21 days and observed 3 weeks post last injection relative to control", "type": "tissue-based", "settings": "in vivo, iv, 2544 h, time 106 day"}, "[18]": {"tested_on": "DU-145", "assay": "Antitumor activity against human DU-145 cells xenografted in BALB/c nude mouse assessed as tumor growth inhibition at 60 mg/kg, ip measured upto 30 days", "type": "functional", "settings": "DU-145, 720 h, time <= 30 day, read-out: TGI"}, "[19]": {"assay": "Chronic toxicity in Soviet Chinchilla rabbit assessed as external signs of intoxication administered intravenously as pluronic F127 formulation at 4 intervals for 21 days and observed 3 weeks post last injection", "design": "species or system Oryctolagus cuniculus", "settings": "in vivo, iv, 2544 h, time 106 day"}, "[20]": {"tested_on": "CWR22R", "assay": "Antitumor activity against human 22Rv1 cells xenografted in Balb/c nude mouse assessed as tumor growth inhibition at 20 mg/kg, ip administered once in two days for three times and measured 1 day after the end of treatment relative to control", "type": "functional", "settings": "22Rv1, 168 h, time 7 day, read-out: TGI"}, "[21]": {"assay": "Toxicity in Balb/c nude mouse xenografted with human 22Rv1 cells assessed as animal death at 20 mg/kg, ip measured upto 30 days", "type": "organism-based, CWR22R", "settings": "in vivo, 720 h, time < 30 day"}, "[22]": {"assay": "Toxicity in Balb/c nude mouse xenografted with human 22Rv1 cells assessed as animal death at 10 mg/kg, ip measured upto 30 days", "type": "organism-based, CWR22R", "settings": "in vivo, 720 h, time < 30 day"}, "[23]": {"assay": "MRT (0 to t) in Soviet Chinchilla rabbit at 8.1 mg/kg, iv administered as pluronic F127 formulation measured upto 72 hrs by high-performance liquid chromatography tandem mass spectrometric analysis", "type": "ADME, organism-based, Oryctolagus cuniculus", "settings": "in vivo"}, "[24]": {"assay": "Chronic toxicity in rat assessed as reduction in body weight at 15 to 18.75 mg/kg, iv administered as pluronic F127 formulation at 4 intervals for 21 days and observed on 77 th day", "type": "organism-based", "settings": "in vivo, 1848 h, dose 15-18.75 mg/kg, time 77 day"}, "[25]": {"tested_on": "CWR22R", "assay": "Antitumor activity against human 22Rv1 cells xenografted in Balb/c nude mouse assessed as tumor growth inhibition at 10 mg/kg, ip administered once in two days for three times and measured 7 days after the end of treatment relative to control", "type": "functional", "settings": "22Rv1, 312 h, time 13 day, read-out: TGI"}, "[26]": {"assay": "Chronic toxicity in rat assessed as change in alkaline phosphatase level at 18.75 to 22.5 mg/kg, iv administered as pluronic F127 formulation at 4 intervals for 21 days and observed 3 weeks post last injection", "type": "organism-based", "settings": "in vivo, 2544 h, dose 18.75-22.5 mg/kg, time 106 day"}, "[27]": {"assay": "Selectivity ratio of CC50 for cytotoxicity against human PC-3 cells to CC50 for cytotoxicity against human 22Rv1 cells"}, "[28]": {"assay": "Acute toxicity in ICR mouse assessed as animal death at 183 to 960 mg/kg, iv administered for 14 days as pluronic F127 formulation and measured after 5 days", "type": "organism-based", "settings": "in vivo, 456 h, dose 183-960 mg/kg, time 19 day"}, "[29]": {"assay": "Chronic toxicity in rat assessed as hair loss at 22.5 mg/kg, iv administered as pluronic F127 formulation at 4 intervals for 21 days and observed 3 weeks post last injection", "type": "organism-based", "settings": "in vivo, 2544 h, time 106 day"}, "[30]": {"assay": "Subchronic toxicity in Wistar rat assessed as diarrhoea at 58 mg/kg, iv administered as pluronic F127 formulation daily for 28 days and observed on days 4 to 5", "type": "organism-based", "settings": "in vivo, 672 h, time 28 day"}},
  "data": [
    {"smiles": "CC(=O)O[C@@]12CO[C@@H]1C[C@H](O)[C@@]1(C)C(=O)[C@H](O)C3=C(C)[C@@H](OC(=O)[C@H](OC(=O)CCCc4cn(CCCNC(=O)[C@H](Cc5ccc(O)cc5)NC(=O)[C@H](Cc5ccccc5)NC(=O)CCC(=O)NCCCCCC(=O)N(CCCC[C@H](NC(=O)N[C@@H](CCC(=O)O)C(=O)O)C(=O)O)Cc5cccc(Cl)c5)nn4)[C@@H](NC(=O)OC(C)(C)C)c4ccccc4)C[C@@](O)([C@@H](OC(=O)c4ccccc4)[C@H]21)C3(C)C", "values": [
      {"measurement": "Activity", "setting": "[1]", "value": "Toxic"},
      {"measurement": "C0 at 72 h", "setting": "[2]", "value": 153, "unit": "µg/mL"},
      {"measurement": "Activity", "setting": "[3]", "value": "Toxic"},
      {"measurement": "Activity", "setting": "[4]", "value": 150.9, "unit": "%"},
      {"measurement": "CC50", "setting": "[5]", "value": 2.7, "unit": "nM"},
      {"measurement": "Activity", "setting": "[6]", "value": "Toxic"},
      {"measurement": "half-life", "setting": "[7]", "value": 8.1, "unit": "h"},
      {"measurement": "Activity", "setting": "[8]", "value": "Toxic"},
      {"measurement": "Activity", "setting": "[9]", "value": "Toxic"},
      {"measurement": "Ratio AUC", "setting": "[10]", "value": 11, "unit": "%"},
      {"measurement": "Activity", "setting": "[11]", "value": "Toxic"},
      {"measurement": "Activity", "setting": "[12]", "value": "Toxic"},
      {"measurement": "Activity", "setting": "[13]", "value": "Toxic"},
      {"measurement": "Activity", "setting": "[14]", "value": "Toxic"},
      {"measurement": "clearance", "setting": "[15]", "value": 0.483, "unit": "mL/min/kg"},
      {"measurement": "Activity", "setting": "[16]", "value": "Toxic"},
      {"measurement": "Activity", "setting": "[17]", "value": "Toxic"},
      {"measurement": "inhibition in vivo at 60 mg/kg", "setting": "[18]", "value": 83.7, "unit": "%"},
      {"measurement": "Activity", "setting": "[19]", "value": "Non-Toxic"},
      {"measurement": "inhibition in vivo at 20 mg/kg", "setting": "[20]", "value": 78, "unit": "%"},
      {"measurement": "Activity", "setting": "[21]", "value": "Non-Toxic"},
      {"measurement": "Activity", "setting": "[22]", "value": "Non-Toxic"},
      {"measurement": "MRT last at 72 h", "setting": "[23]", "value": 7.4, "unit": "h"},
      {"measurement": "Activity", "setting": "[24]", "value": "Toxic"},
      {"measurement": "inhibition in vivo at 10 mg/kg", "setting": "[25]", "value": 87, "unit": "%"},
      {"measurement": "Activity", "setting": "[26]", "value": "Non-Toxic"},
      {"measurement": "Selectivity ratio", "setting": "[27]", "value": 1},
      {"measurement": "Activity", "setting": "[28]", "value": "Toxic"},
      {"measurement": "Activity", "setting": "[29]", "value": "Toxic"},
      {"measurement": "Activity", "setting": "[30]", "value": "Toxic"}
    ]}
  ]
}
